Assays:
[1] = tested on: Hmox1 gene; experiment: Effect of inducing Nrf2 target gene (in vitro): Hmox1 gene expression in ARPE-19 cells, real-time quantitative PCR; assay type: cell-based, human; settings: for Hmox1 gene expression level (relative value): approx. 6 hours, 0 nM defined as 1.0, mean ± SD, 3 wells; for concentration at which the expression level of the Hmox1 gene was increased 2-fold / concentration at which the expression level of the Hmox1 gene was increased 5-fold: analysed with Prism
Description: The Hmox1 gene was used as the Nrf2 target gene.
The expression level of the Hmox1 gene induced by the addition of a test compound to ARPE-19 cells (human retinal pigment epithelium cell line, ATCC, catalog No. CRL-2302) was measured to examine the effect of inducing the Hmox1 gene by the test compound. The test compound was terpenoid derivative B of the present invention obtained in Example 1 and CDDO-Me as Comparative Example.
The ARPE-19 cells were cultured (5% CO2, 37° C.) using a DMEM/F12 (Life Technologies Japan Ltd., catalog No. 11330-032) mixed medium containing 10% inactivated FBS. The medium contained 100 units/mL (final concentration) penicillin and 100 μg/mL (final concentration) streptomycin.
The ARPE-19 cells were seeded at 60000 cells/well in a 24-well plate. The amount of the medium was 500 μL. Approximately 24 hours later, the medium was replaced with a medium containing terpenoid derivative B of the present invention obtained in Example 1 or CDDO-Me, and the culture was continued. Approximately 6 hours later, mRNA was collected from the ARPE-19 cells using an extraction kit (manufactured by Qiagen N.V., RNeasy Mini Kit, catalog No. 74106). From the obtained mRNA, cDNA was prepared using a cDNA synthesis kit (manufactured by GE Healthcare Life Sciences, First-Strand cDNA Synthesis Kit). The obtained cDNA was amplified using a reagent (manufactured by Applied Biosystems, Inc., TaqMan(R) Gene Expression Master Mix (catalog No. 4369016)) and a probe, and subjected to real-time quantitative PCR (Real-time PCR HT7900 manufactured by Applied Biosystems, Inc. was used).
When the concentration of the test compound was 0 nM, the expression level of the Hmox1 gene was defined as 1.0±0.0. The expression level of the Hmox1 gene at each concentration of the test compound was indicated as a relative value. Each group consisted of 3 wells and was indicated by a mean and standard deviation.
The activity ratios of terpenoid derivative B of the present invention to CDDO-Me were 2747 times and 92 times.

[2] = tested on: ARPE-19 cells; experiment: Cytoprotective action: suppression of t-BHP-induced decrease in number of live ARPE-19 cells; assay type: cell-based, human; settings: 300 μM t-BHP; for Number of live cells (percentage): no t-BHP/no compound = 100%, mean ± SD, 3 wells
Description: The peroxide tert-butyl hydroperoxide (t-BHP) is known to cause oxidative stress-dependent cell injury (Chem Biol Interact 2009; 181: 366- and Food Chem Toxicol 2011; 49: 2081-).
The test compound was terpenoid derivative B of the present invention obtained in Example 1 and CDDO-Me as Comparative Example.
ARPE-19 cells were cultured (5% CO2, 37° C.) using a DMEM/F12 (Life Technologies Japan Ltd., catalog No. 11330-032) mixed medium containing 10% inactivated FBS. The medium contained 100 units/mL (final concentration) penicillin and 100 μg/mL (final concentration) streptomycin.
The ARPE-19 cells were seeded at 10000 cells/well in a 96-well plate. The amount of the medium was 100 μL. Approximately 6 hours later, the medium was replaced with a medium containing terpenoid derivative B of the present invention obtained in Example 1 or CDDO-Me. After culture for approximately 16 hours, the number of live ARPE-19 cells was measured (Cell Counting Kit-8 (catalog No. CK01) manufactured by Dojindo Laboratories was used). Then, the medium was replaced with medium containing 300 μM t-BHP (manufactured by Sigma-Aldrich Corp., catalog No. 46665) and further containing terpenoid derivative B of the present invention obtained in Example 1 or CDDO-Me. Approximately 6 hours after the addition of t-BHP, the number of live ARPE-19 cells was measured.
The number of live cells in medium containing neither t-BHP nor the test compound was defined as 100%. The number of live cells in medium containing 300 μM t-BHP and each concentration of the test compound was indicated by percentage. Each group consisted of 3 wells and was indicated as a mean and standard deviation.

[3] = tested on: NQO1; experiment: NQO1 assay in Hepa1c1c7 cells; assay type: cell-based, mouse; settings: approx. 48 hours, mean of 3 wells
Description: Hepa1c1c7 cells (mouse hepatic cell line, ATCC, catalog No. CRL-2026) were cultured (5% CO2, 37° C.). A DMEM (Life Technologies Japan Ltd., catalog No. 11965-092) medium also containing 10% inactivated FBS was used. The medium contained 100 units/mL (final concentration) penicillin and 100 μg/[…] (final concentration) streptomycin. The NQO1 assay was conducted according to previous reports (Anal Biochem 1998; 169: 328-; and Methods Enzymol 2004; 382: 243-).
The Hepa1c1c7 cells were seeded at 10000 cells/well in a 96-well plate. The amount of the medium was 100 μL. Approximately 24 hours later, the medium was replaced with a medium containing CDDO-Me or each of terpenoid derivatives A to G, followed by further culture for approximately 48 hours. A lysis solution (a solution containing 2 mM EDTA and 0.8% digitonin), a reaction solution (a solution containing 0.025 M of tris-HCl, 0.067% of albumin, 0.01% of Tween-20, 2 U/mL of glucose-6-phosphate dehydrogenase, 5 μM of flavin adenine dinucleotide, 1 […], 30 μM of nicotinamide adenine dinucleotide phosphate, 0.03% of 3-(4,5-dimethyl-2-thiazolyl)-2,5-diphenyltetrazolium bromide (MTT), and 50 μM of menadione), and a stop solution (a solution containing 0.3 mM dicumarol and 5 mM potassium dihydrogen phosphate, pH 7.4) were prepared. After removal of the medium, 50 μL of the lysis solution was added thereto, and the mixture was left standing at 37° C. for 10 minutes. The reaction mixture was further shaken at room temperature for 10 minutes.
Two hundred μL of the solution was added thereto, and the mixture was left standing at room temperature for 5 minutes. Fifty μL of the stop solution was added thereto, and the absorbance at 490 nm was measured.
The test results were analyzed using Prism (GraphPad Software, Inc., Ver. 5) to calculate the CD value of the concentration at which the activity of NQO1 was increased 2-fold. Each group consisted of 3 wells and indicated as a mean of CD values.

| SMILES | activity ratio to CDDO-Me (2-fold Hmox1 increase concentration) [1] | activity ratio to CDDO-Me (5-fold Hmox1 increase concentration) [1] | Hmox1 gene expression level (relative value) ([1]; 0.00001 nM test compound) | Hmox1 gene expression level (relative value) ([1]; 0.001 nM test compound) | Hmox1 gene expression level (relative value) ([1]; 0.03 nM test compound) | Hmox1 gene expression level (relative value) ([1]; 0.3 nM test compound) | Hmox1 gene expression level (relative value) ([1]; 3 nM test compound) | Hmox1 gene expression level (relative value) ([1]; 30 nM test compound) | concentration at which the expression level of the Hmox1 gene was increased 2-fold [1] | concentration at which the expression level of the Hmox1 gene was increased 5-fold [1] | Number of live cells (percentage) ([2]; 0.03 nM test compound) | Number of live cells (percentage) ([2]; 0.3 nM test compound) | Number of live cells (percentage) ([2]; 3 nM test compound) | Number of live cells (percentage) ([2]; 30 nM test compound) | Number of live cells (percentage) ([2]; 300 nM test compound) | CD value (concentration at which the activity of NQO1 was increased 2-fold) [3] | suppression of the decrease in the number of live cells caused by t-BHP (in words) [2] |
| --- | --- | --- | --- | --- | --- | --- | --- | --- | --- | --- | --- | --- | --- | --- | --- | --- | --- |
| COC(=O)[C@@]12CC[C@]3(C)[C@H](C(=O)C=C4[C@@]5(C)[C@H]6O[C@@]6(C#N)C(=O)C(C)(C)[C@@H]5CC[C@]43C)[C@@H]1CC(C)(C)[C@@H](O)C2 [terpenoid derivative B] | 2747 times | 92 times | 1.3 ± 0.0 | 0.9 ± 0.1 | 5.4 ± 0.1 | 6.1 ± 0.5 | 10.4 ± 1.5 | 20.8 ± 1.9 | 0.00091 nM | 0.12 nM | 90.3 ± 3.9% | 99.0 ± 10.0% | 119.7 ± 5.7% | 114.3 ± 9.5% | 111.2 ± 3.8% | 0.3 nM |  |
| COC(=O)[C@]12CCC(C)(C)C[C@H]1[C@H]1C(=O)C=C3[C@@]4(C)C=C(C#N)C(=O)C(C)(C)[C@@H]4CC[C@@]3(C)[C@]1(C)CC2 [CDDO-Me, methyl 2-cyano-3,12-dioxooleana-1,9-dien-28-oate, reference compound] |  |  | 1.1 ± 0.0 | 1.0 ± 0.1 | 1.4 ± 0.0 | 1.4 ± 0.1 | 2.1 ± 0.3 | 12.2 ± 2.6 | 2.5 nM | 11 nM | 61.8 ± 2.0% | 56.7 ± 1.2% | 74.3 ± 1.4% | 84.7 ± 4.8% | 76.1 ± 2.8% | 1.0 nM | did not completely suppress the decrease in the number of live cells |

From patent publication US10253060B2, “Terpenoid derivatives” (Daiichi Sankyo Company, Limited, priority 2013, dated 2019)
